Measurements published in paper PMC11778240, “Synthesis and preclinical evaluation of tigilanol tiglate analogs as latency-reversing agents for the eradication of HIV” (Science Advances, 2025).
pKi: −log10 of the molar value. Several values for one entry are separate records, joined by “and”; a condition that tells them apart may be missing. Identical values can stand only once. Like-named read-outs stand apart in the source and are kept apart here.

Experiments:
PKC-β-I = target: T1, PKC-β-I (Homo sapiens, UniProt P05771); experiment: Cell-free PKC competition binding assay against 3H-PDBu; conditions: for PKC-β selectivity: Fig. 7A, PKC-β over PKC-δ; for logKi (best-fit value), PKC-β-I: log of Ki in nM; for PKC binding affinity and selectivity in words / decrease in PKC binding affinity / potency compared to EBC-46: PKC-β and PKC-δ
T1 construct: purchased Invitrogen
From the text: (§1) With a diverse library of compounds bearing unique functionalities on the A-, B-, and C-rings (Fig. 6), we began to explore how these modifications affect PKC binding (Fig. 7A), NF-κB activation (Fig. 7B), cell permeation and PKC translocation (Fig. 7, C and D), and latency reversal in J-Lat cells (Fig. 8). […] We conducted this assay with phosphatidyl serine vesicles in solution that mimic the cellular membrane and play a critical role in the binding of small molecules to the PKC C1 domain (Fig. 7A) ([64]).
(§2) Cell-free PKC Binding Assay
The protein kinase C (PKC) affinity of EBC-46 and EBC-46 analogs was determined via […]
entails a glass-fiber filtration method to determine bound radioligand. The method of determining the radioligand Kd is also described.
(§3) Tris HCl (Fisher, ≥ 99%, stored at room temperature)
(§4) Phosphatidylserine (Avanti Polar Lipids, porcine, 25 mg/mL CHCl3 solution, stored at - […]
(§5) Bovine serum albumin (Sigma -Aldrich, ≥ 98%, globulin free, protease free, stored at 4 […]
Human PKC-β-I-GST fusion protein (Invitrogen, aliquoted and stored at -78 °C) Human PKC-δ-GST fusion protein (Invitrogen, aliquoted and stored at -78 °C) Glass-fiber filters (Whatman GF/B) […]
(§6) a final concentration of 500 nM.
(§7) Preparation of phosphatidylserine (PS) vesicles :
(§8) For every 96 samples, 3.5 mg phosphatidylserine (140 μL) (25 mg/mL CHCl3 solution) was concentrated by removing chloroform under reduced pressure. The phosphatidylserine residue was resuspended in freshly prepared PKC binding assay buffer (3.5 mL), capped, and then thoroughly mixed by alternating between sonicating and vortexing, in 10 second intervals for 1 minute or until a cloudy white mixture (Branson Sonifier 250, power = 2, 50% duty cycle). The resulting cloudy white mixture (1 mg/mL) was stored on ic e until use.
(§9) Preparation of the "master mix" Solution :
(§10) Constituent Stock concentration (final concentration/amount in “master mix”):
(§11) PS vesicles (0.103 mg/mL)
(§12) Deionized H2O - Final vol of 30 mL
(§13) Preparation of PKC binding assay buffer:
(§14) For every 96 samples, to a 50 mL polypropylene tube was added Tris -HCl (pH 7.4, 1 M, 1.5 mL), KCl (1 M, 3 mL), CaCl2 (0.1 M, 35 μL – conventional isoforms only), and bovine serum albumin (60 mg). This mixture was diluted to 30 mL with deionized H2O and mixed gently. The buffer was […]
(§15) Preparation of PKC isoform solution:
(§16) For every 96 samples, PKC isoform solution was prepared by dissolving a 4 μg aliquot of the indicated recombinant human PKC isoform into 26.5 mL of PKC binding assay buffer. The diluted PKC was stored on ice for immediate use.
(§17) Preparation of PKC “master mix” solution:
(§18) To the PKC-isoform solution was added 1 mg/mL PS vesicles solution (3.30 mL), and 500 nM […]
(§19) The resulting “master mix” solution was vortexed and stored on […]
(§20) Preparation of analog compound dilutions:
(§21) Compound dilutions were prepared with filtered DMSO by serially diluting from a chosen "high" concentration. For the saturation binding experiment (radioligand Kd determination), the maximum radioligand concentration used was 4.0 nM with 2-fold dilutions between data points […]
(§22) the middle of the binding curve.
For the competition binding experiment (analog Ki determination), 7 or 14 concentrations were used to define the inhibition curve, and compounds dilutions changed by factors of 2 or √2 between data points. The concentrations were chosen such that the in-assay concentration for the data points in the middle of the binding curve were approximately equal to the IC50 of the compound (if the IC50 is unknown, an exploratory binding assay is recommended prior to Ki determination). For assays with one compound per sheet, the √2-fold dilutions were prepared for the concentrations in […]
PKC binding assay protocol (Saturation -binding experiment and Competition -binding experiment)
1) Glass-fiber filters were prepared by soaking them in a solution of aqueous polyethyleneimine

PKC-δ = target: T2, PKC-δ (Homo sapiens, UniProt Q05655); experiment: as above
T2 construct: purchased Invitrogen (Sinobiological for the SUW402 experiment)
From the text: as §1, §2
The protein kinase C (PKC) affinity of EBC-46 and EBC-46 analogs was determined via competition with 3H-phorbol-12,13-dibutyrate (3H-PDBu) as described below. This procedure entails a glass-fiber filtration method to determine bound radioligand. The method of determining the radioligand Kd is also described.
as §3, §4, §5
Human PKC-β-I-GST fusion protein (Invitrogen, aliquoted and stored at -78 °C) Human PKC-δ-GST fusion protein (Invitrogen, aliquoted and stored at -78 °C) Glass-fiber filters (Whatman GF/B)
Preparation of 3H -PDBu solution : […]
as §6, §7, §8, §9, §10, §11, §12, §13, §14, §15, §16, §17, §18, §19, §20, §21
isoforms ranges from 0.3 – 0.8 nM. […]
as §22
For the competition binding experiment (analog Ki determination), 7 or 14 concentrations were used to define the inhibition curve, and compounds dilutions changed by factors of 2 or √2 between data points. The concentrations were chosen such that the in-assay concentration for the data points in the middle of the binding curve were approximately equal to the IC50 of the compound (if the IC50 is unknown, an exploratory binding assay is recommended prior to Ki determination). For assays with one compound per sheet, the √2-fold dilutions were prepared for the concentrations in the middle of the curve (e.g., for SUW400, the analog dilutions used were 15000 nM, 7500 nM, […]
PKC binding assay protocol (Saturation -binding experiment and Competition -binding experiment) […]

[1] = HotNM 2.5, HotKdNM 0.37, supplement fit, read-out: Ki (best-fit value), PKC-β-I
[2] = competition against radiolabeled PDBu, Fig. 7A and text, read-out: Ki PKC-β
[3] = HotNM 2.5, HotKdNM 0.62, supplement fit, read-out: Ki (best-fit value), PKC-δ
[4] = competition against radiolabeled PDBu, Fig. 7A and text, read-out: Ki PKC-δ
[5] = log of Ki in nM, HotNM 2.5, HotKdNM 0.62

T1 sequence (P05771 whole entry): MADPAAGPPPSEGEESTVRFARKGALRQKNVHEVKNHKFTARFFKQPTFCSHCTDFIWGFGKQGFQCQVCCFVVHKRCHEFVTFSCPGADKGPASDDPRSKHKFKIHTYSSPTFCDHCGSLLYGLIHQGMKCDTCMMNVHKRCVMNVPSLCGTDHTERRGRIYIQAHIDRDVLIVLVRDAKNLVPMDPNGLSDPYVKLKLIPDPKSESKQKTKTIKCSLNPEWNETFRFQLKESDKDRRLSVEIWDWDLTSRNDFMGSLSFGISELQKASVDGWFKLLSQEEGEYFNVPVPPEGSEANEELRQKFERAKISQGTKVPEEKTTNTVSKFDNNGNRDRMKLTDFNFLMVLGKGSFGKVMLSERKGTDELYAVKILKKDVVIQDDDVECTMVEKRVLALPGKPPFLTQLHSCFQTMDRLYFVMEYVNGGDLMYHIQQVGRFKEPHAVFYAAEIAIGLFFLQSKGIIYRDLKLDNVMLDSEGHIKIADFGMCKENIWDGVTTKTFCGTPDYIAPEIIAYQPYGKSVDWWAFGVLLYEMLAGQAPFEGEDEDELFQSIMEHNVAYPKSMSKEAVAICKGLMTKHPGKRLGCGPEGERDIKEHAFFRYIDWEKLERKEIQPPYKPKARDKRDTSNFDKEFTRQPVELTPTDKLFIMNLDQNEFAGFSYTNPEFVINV
T2 sequence (Q05655 whole entry): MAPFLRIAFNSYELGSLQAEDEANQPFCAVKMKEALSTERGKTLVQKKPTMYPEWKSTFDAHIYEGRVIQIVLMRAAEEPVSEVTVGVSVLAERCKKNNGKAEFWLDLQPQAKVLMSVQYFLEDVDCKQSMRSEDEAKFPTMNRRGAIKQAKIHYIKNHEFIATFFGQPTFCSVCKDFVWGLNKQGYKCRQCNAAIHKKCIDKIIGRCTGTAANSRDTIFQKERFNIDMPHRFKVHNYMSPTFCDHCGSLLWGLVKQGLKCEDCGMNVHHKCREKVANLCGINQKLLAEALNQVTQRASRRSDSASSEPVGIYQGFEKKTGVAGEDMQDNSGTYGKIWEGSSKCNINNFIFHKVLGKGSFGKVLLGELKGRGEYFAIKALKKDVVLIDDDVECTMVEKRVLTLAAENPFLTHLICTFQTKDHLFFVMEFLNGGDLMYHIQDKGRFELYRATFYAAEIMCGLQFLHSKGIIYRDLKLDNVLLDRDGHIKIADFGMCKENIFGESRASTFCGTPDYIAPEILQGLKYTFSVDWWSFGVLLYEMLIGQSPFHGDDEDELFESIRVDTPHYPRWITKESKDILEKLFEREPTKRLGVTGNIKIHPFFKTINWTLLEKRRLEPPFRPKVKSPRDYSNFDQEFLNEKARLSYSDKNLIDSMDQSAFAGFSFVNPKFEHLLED

Compound	selectivity for PKC-β over PKC-δ (PKC-β-I)	preference for binding PKC-β over PKC-δ (PKC-β-I; Discussion)	PKC-β selectivity (PKC-β-I)	pKi (PKC-β-I; [1])	pKi (PKC-β-I; [2])	logKi (best-fit value), PKC-β-I (PKC-β-I; HotNM 2.5, HotKdNM 0.37)	pKi (PKC-δ; [3])	pKi (PKC-δ; [4])	logKi (best-fit value), PKC-δ (PKC-δ; [5])	PKC binding affinity and selectivity in words (PKC-β-I)	logKi (best-fit value), PKC-δ (PKC-δ; PKC-δ-GST from a different vendor (Sinobiological), HotNM 2.5, HotKdNM 2.94)	pKi (PKC-δ; PKC-δ-GST from a different vendor (Sinobiological), HotNM 2.5, HotKdNM 2.94, read-out: Ki (best-fit value), PKC-δ)	decrease in PKC binding affinity / potency compared to EBC-46 (PKC-β-I)	logKi (best-fit value), PKC-δ (PKC-δ; HotNM 5, HotKdNM 0.72)	pKi (PKC-δ; HotNM 5, HotKdNM 0.72, read-out: Ki (best-fit value), PKC-δ)
C/C=C(\C)C(=O)O[C@@H]1[C@@H](C)[C@@]2(O)[C@H]([C@@H]3C(C)(C)[C@]13OC(=O)[C@@H](C)CC)[C@@H]1O[C@]1(CO)[C@@H](O)[C@]1(O)C(=O)C(C)=C[C@H]12 [EBC-46, Tigilanol tiglate]	twofold	2.3 ×	2.3	8.86	8.85	0.1397	8.49	8.49	0.5102						
C/C=C(\C)C(=O)O[C@@H]1[C@@H](C)[C@]2(O)[C@@H]3C=C(C)C(=O)[C@@]3(O)[C@H](O)C(CO)=C[C@H]2[C@@H]2C(C)(C)[C@]12OC(=O)[C@@H](C)CC [SUW400]			2.9	9.07	9.07	-0.07019	8.60	8.60	0.4034	nearly identical binding affinity and selectivity compared to EBC-46					
C/C=C(\C)C(=O)O[C@@H]1[C@@H](C)[C@@]2(O)[C@@H](C=C(CO)C[C@]3(O)C(=O)C(C)=C[C@@H]23)[C@@H]2C(C)(C)[C@]12OC(=O)[C@@H](C)CC [SUW402]			3.7	9.93	9.92	-0.9263		9.36		remarkable affinities in the picomolar range	-0.3561	9.36			
CC=C(C)C(=O)OC1C(C)C2(O)C(C3OC3(CO)CC3(O)C(=O)C(C)=CC32)C2C(C)(C)C12OC(=O)C(C)CC (stereo not shown) [SUW403]			2.7	8.10	8.10	0.8975	7.67	7.68	1.330				approximately fivefold		
C/C=C(\C)C(=O)O[C@@H]1[C@@H](C)[C@@]2(O)[C@H]([C@@H]3C(C)(C)[C@]13OC(=O)C1CCC1)[C@@H]1O[C@]1(CO)[C@@H](O)[C@]1(O)C(=O)C(C)=C[C@H]12 [SUW406]	fourfold		3.8	8.70	8.70	0.2968	8.12	8.12	0.8752						
C/C=C(\C)C(=O)O[C@@H]1[C@@H](C)[C@@]2(O)[C@H]([C@@H]3C(C)(C)[C@]13OC(=O)[C@H](C)CC)[C@@H]1O[C@]1(CO)[C@@H](O)[C@]1(O)C(=O)C(C)=C[C@H]12 [SUW407]			1.6	8.64	8.64	0.3637	8.43	8.43	0.5722						
CC[C@H](C)C(=O)O[C@@]12[C@H](OC(=O)C3(C)CC3)[C@@H](C)[C@@]3(O)[C@H]([C@@H]1C2(C)C)[C@@H]1O[C@]1(CO)[C@@H](O)[C@]1(O)C(=O)C(C)=C[C@H]13 [SUW413]			3.9	8.61	8.60	0.3892	8.01	8.01	0.9851	very similar binding affinity to both PKC-β and PKC-δ compared to SUW406					
C/C=C(\C)C(=O)O[C@@H]1[C@@H](C)[C@@]2(O)[C@H]([C@@H]3C(C)(C)[C@]13OC(=O)N1CCCC1)[C@@H]1O[C@]1(CO)[C@@H](O)[C@]1(O)C(=O)C(C)=C[C@H]12 [SUW421]	10 fold		9.5	7.70	7.70 and ~7.60	1.302	6.71	6.72	2.288				> 10 fold		
C/C=C(\C)C(=O)O[C@@H]1[C@@H](C)[C@]2(O)[C@@H]3C=C(C)[C@H](OC(=O)c4ccccc4)[C@@]3(O)[C@H](O)C(CO)=C[C@H]2[C@@H]2C(C)(C)[C@]12OC(=O)[C@@H](C)CC [SUW422]			2.1	8.83	8.82	0.1731	8.52		0.4832	nearly identical binding potency and selectivity to EBC-46					
CC[C@H](C)C(=O)O[C@@]12[C@H](OC(=O)N3CCCC3)[C@@H](C)[C@@]3(O)[C@H]([C@@H]1C2(C)C)[C@@H]1O[C@]1(CO)[C@@H](O)[C@]1(O)C(=O)C(C)=C[C@H]13 [SUW424]	6 fold		6.1	7.56	7.55 and ~7.60	1.445	6.76	6.77	2.242				> 10 fold		
C/C=C(\C)C(=O)O[C@@H]1[C@@H](C)[C@]2(O)[C@@H]3C=C(C)[C@H](OC(=O)C=C(C)C)[C@@]3(O)[C@H](O)C(CO)=C[C@H]2[C@@H]2C(C)(C)[C@]12OC(=O)[C@@H](C)CC [SUW425]			1.8	8.58	8.59	0.4165	8.33	8.33	0.6748	approximately the same as EBC-46					
CC=C(C)C(=O)OC1C(C)C2(O)C(C3OC3(COC)C(O)C3(O)C(=O)C(C)=CC32)C2C(C)(C)C12OC(=O)C(C)CC (stereo not shown) [SUW426]			1.8	6.40	6.40	2.598		6.15					approximately 250 fold	2.846	6.15
